Experimental data from publication PMC7932521, “2-aminobenzimidazoles for leishmaniasis: From initial hit discovery to in vivo profiling” (PLoS Neglected Tropical Diseases, 2021).
pIC50: −log10 of the molar value. ≈ marks a conversion by molar mass, not a printed value. Read-outs that look alike come from different tables or passages of the source.

How the values were obtained:
[1] = system: Leishmania infantum MHOM/MA(BE)/67/ITMAP263 amastigotes; assay: L. infantum intracellular amastigote assay in PMM; assay type: cell-based; conditions: for SI: selectivity index (CC50 / IC50): CC50 / L. infantum IC50; for pIC50: read-out: L. infantum IC50
Description: (§1) Leishmania infantum MHOM/MA(BE)/67/ITMAP263 amastigotes were collected from the spleen of infected donor Golden hamsters. Primary peritoneal mouse macrophages (PMM) were used as host cells for in vitro assays. PMM were collected from Swiss mice after 2 days of peritoneal stimulation with a 2% suspension of potato starch and maintained in RPMI-1640 medium supplemented with 200 mM L-glutamine, antibiotics and 5% FCS at 37°C and 5% CO2. Promastigotes of L. infantum chagasi (luciferase) (MHOM/BR/2005/NLC) obtained as described in Reimão et al.,[27] were grown in M199 medium supplemented with 10% FCS, 0.25% hemin, 32 μg/ml hygromycin and 2% sterile human urine at 25°C and 5% CO2.
(§2) Stock solutions of the compounds at 20 mM were prepared in 100% DMSO. Next, the compounds were serially pre-diluted in DMSO followed by a further dilution in demineralized water to assure a final in-test DMSO concentration below 1%. The compounds were tested at 4-fold dilutions starting at 64 μM.
For the antileishmania in vitro assays, 3×10^4 PMM/well were seeded in 96-well plates. After 24h, 5×10^5 amastigotes/well were added and incubated for 2h at 37°C. Next, the compounds in 4-fold serial dilutions were added and the plates were further incubated for 5 days (37°C, 5% CO2). Parasite burdens were assessed using an inverted microscope after Giemsa staining. The results were expressed as percent reduction in parasite burdens compared to negative control wells (100% growth) and IC50 values were determined. Values represent the geometric mean of at least two independent experiments. Miltefosine was used as the positive control in all plates.

[2] = system: PMM (Primary Mouse Macrophages); assay: Cytotoxicity on primary peritoneal mouse macrophages; assay type: cell-based; conditions: read-out: PMM IC50
Description: as §1, §2

MRC-5 cells = assay: MRC-5 cytotoxicity; assay type: cell-based; conditions: S1 Data
[3] = Experimental distribution coefficient (eLogD); assay type: physicochemical
Description: To determine the lipophilicity of the compounds, a methodology based on the retention time of molecules in reverse stationary phase (Ascentis RP-Amide HPLC column) was used. The chromatogram was obtained using LC-MS/MS. Test compounds were prepared at 1.0 μg/mL by adding the stock solution at (1:1) mobile phases A:B + internal standard at 200nM (A: 5% methanol in 10mM ammonium acetate pH 7.4, B: 100% methanol), DMSO concentration must be lower than 2%. […] The retention time (in minutes) of each of the eight standards was plotted against their LogD values. The resulting equation for the calibration curve (y = mx + b) was used to calculate the LogD values for the test compounds.

[4] = Mouse liver microsomal stability; assay type: in vitro ADME
Description: The metabolic stability of the compounds was evaluated in human (pool of 200 donors, XenoTech) and mouse liver microsomes (CD1 mouse, GIBCO). Test compounds were prepared at a concentration of 0.5 μM and incubated with 0.25 mg/mL liver microsomes at pH 7.4 and 37°C. The reaction was started by addition of NADPH at […]. Samples were taken at 0, 5, 10, 15, 20 and 30 minutes. The reaction was stopped by the addition of acetonitrile:methanol (1:1) containing an internal standard (tolbutamide at 50 nM). Compounds were quantified by liquid chromatography triple quadrupole mass spectrometry (LC-MS/MS). Peak area ratios (analyte/internal standard) were converted to % remaining using the area ratio at time 0 as 100%. Half-life (t1/2 = ln(2)/k) in minutes and intrinsic clearance (Clint = k x 1000/(0.25)) in μL/min/mg were calculated using a non-linear regression from % remaining versus incubation time. From this plot, the slope (k) was determined. The analysis conditions were: analytical column (Gemini C18, […], Phenomenex), electrospray ionization source (ESI) in positive and negative mode, mobile phase A (water + 0.1% formic acid) and B (acetonitrile + 0.1% formic acid), flow rate of 0.7 mL/min.

[5] = Parallel artificial membrane permeability assay (PAMPA); assay type: in vitro ADME; conditions: S1 Data; for Papp at 5 h, 10 μM: PAMPA, read-out: PAMPA Pe
Description: To determine the passive permeability of the compounds, a 96-well plate containing membranes pre-coated with lipids (Corning Gentest # 353015) was used. The solutions of the compounds were prepared by diluting the stock solutions (10mM) in phosphate buffered saline (PBS) pH 6.5 at a final concentration of 10μM. The solutions diluted in PBS pH 6.5 were then added to the donor portion of the plate (300 μl/well), while PBS pH 7.4 (200 μl/well) was added to the acceptor portion. The two portions of the plate were then coupled, and the system was incubated for 5 h at 37°C. At the end of the incubation, samples were collected from the donor and acceptor plates, and then added to plates containing quench solution (10% water and 90% methanol: acetonitrile (50:50) + 50 nM tolbutamide). The final concentrations of compounds in the donor, acceptor, and initial solution (T0) wells were analyzed using LC-MS/MS. The results were used to calculate an effective permeability (Pe) value. The PAMPA assay was performed in triplicate (n = 3).

MRC-5 cytotoxicity = assay type: cell-based; conditions: human, MRC-5 cells; S1 Data
Kinetic solubility = assay type: physicochemical; conditions: for solubility kinetic at 24 h: PBS buffer pH 7.4, aqueous buffer, kinetic from dmso stock, PBS pH 7.4, read-out: KS PBS - pH7.4
Description: The precipitates on the incubation plate were removed by centrifugation (15 min, 3000 rpm, r.t.); the compound concentration in the resulting supernatant was determined by LC-MS/MS. Results were calculated as the concentration of remaining compound in solution after incubation.

HEPG2 cytotoxicity = assay type: cell-based; conditions: human, HepG2 cells; S1 Data
Description: Supplement pntd.0009196.s001.xlsx, sheet "Complete Dataset" | column: HEPG2 CC50 (uM)

[6] = intracellular amastigotes in PMM, 5 days
[7] = Leishmania infantum, 120 h, intracellular amastigotes in PMM, 5 days

Compound	SI: selectivity index (CC50 / IC50) [1]	pIC50 ([1]; S1 Data)	pIC50 [1, 6]	pIC50 ([2]; S1 Data)	CC50 (MRC-5 cells) [µM]	eLogD ([3]; S1 Data)	MLM CLint ([4]; S1 Data) [µL/min/mg]	PAMPA Pe [5]	MLM CLint ([4]; mouse liver microsome intrinsic clearance) [µL/min/mg]	eLogD ([3]; experimental, pH 7.4)	pIC50 [1, 7]	pIC50 ([1]; Leishmania infantum, S1 Data)	pIC50 ([2]; Mus musculus, Macrophage)	CC50 (MRC-5 cytotoxicity) [µM]	Papp at 5 h, 10 μM [5] [nm/s]	solubility kinetic at 24 h (Kinetic solubility) [mg/mL]	KS PBS - pH 2 (Kinetic solubility) [ug/mL]	CC50 (HEPG2 cytotoxicity) [µM]	chromatographic logD ([3]; reverse stationary phase HPLC column (Ascentis RP-Amide), pH 7.4, S1 Data)	microsomal CLint at 0.5 μM ([4]; CD1, mouse, liver microsomes, pH 7.4, S1 Data, read-out: MLM CLint) [µL/min/mg]
CCCn1c(NC(=O)Cc2ccc(F)cc2)nc(c13)cc(C(=O)OC)cc3 [Compound 9]	3	5.19	5.19	4.80	18.7	4.04	1253	8.66 10-6 cm/s												
CCCn1c(NC(=O)Cc2ccc(F)cc2)nc(c13)cc(C(=O)N4CCOCC4)cc3 [Compound 14]	1	4.24	4.24	< 4.19	> 64	3.05	<23	7.26 10-6 cm/s	23											
CCCn1c(NC(=O)Cc2ccc(F)cc2)nc(c13)cc(C(=O)N(C)OC)cc3 [Compound 15]	5	4.90	4.89	< 4.19	55.5	3.31	128	9.07 10-6 cm/s		3.3										
COCCn1c(NC(=O)c2ccnn2C)nc2ccc(C#N)cc21 [Compound 50, O=C(c1ccnn1C)Nc2nc(ccc(C#N)c3)c3n2CCOC]	1						98				4.33	4.33	< 4.19	> 64	147	0.00598 (≈ 18.4 µM)	7.77			
Cn1nccc1C(=O)Nc1nc2cncnc2n1CC(F)(F)F [Compound 55, O=C(c1ccnn1C)Nc2nc(cncn3)c3n2CC(F)(F)F]	2						24				5.40	5.39	5.10	24.8	136	0.065 (≈ 200 µM)	64.44			
CCCn1c(NC(=O)Cc2ccc(F)cc2)nc(c13)cc(C(=O)NC4CC4)cc3 [Compound 12]	1	4.34	4.35	< 4.19	> 64	3.50	52	13.10 10-6 cm/s		3.5										
CC(C)(C)Cn1c(NC(=O)c2ccn[nH]2)nc2ccc(C#N)cc21 [Compound 34, O=C(Nc1nc(ccc(C#N)c2)c2n1CC(C)(C)C)c3ccn[nH]3]	1									3.6	4.42	4.42	4.29	> 64	111			16	3.67	47
